Test results published in the supplement of paper PMC10307832.

Tests used:
Test in all cases: relative viability (nuclei count vs DMSO), 5 days (fraction); higher = more cells survive
[1] = compound: CC[C@@H](C)CNCC(=O)N1CCC2=C([C@@H]1COC3=CC=CC(=C3)C)C=CS2 [RU-SKI 43] + CC(C)C[C@H](NC(=O)[C@H](Cc1ccccc1)NC(=O)c1cnccn1)B(O)O [Bortezomib] (partner 0.002 µM)
Outline: (§1)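 Relative viability equals treated-well nuclei counts divided by vehicle-well nuclei counts. Counts came from 4× images of lung cancer cell lines grown in 1536-well plates for 5 days after pin-tool dosing on the day after seeding. Dosing used one drug alone or a fixed anchor-drug dose plus five library-drug doses (not always all listed) in √10 steps, and values are medians of duplicate plates.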

[2] = compound: CC[C@@H](C)CNCC(=O)N1CCC2=C([C@@H]1COC3=CC=CC(=C3)C)C=CS2 [RU-SKI 43] + C[C@]1(O)C[C@@H](c2nc(-c3ccc4ccc(-c5ccccc5)nc4c3)c3c(N)nccn32)C1 [Linsitinib] (partner 1 µM)
Outline: as §1

[3] = compound: CC[C@@H](C)CNCC(=O)N1CCC2=C([C@@H]1COC3=CC=CC(=C3)C)C=CS2 [RU-SKI 43] + N=C(N)NC(=N)NCCc1ccccc1 [Phenformin] (partner 250 µM)
Outline: as §1

[4] = compound: Cn1cc(-c2cnc3ccc4ccc(CS(=O)(=O)NCc5ccccn5)cc4c(=O)c3c2)cn1 [MK-8033] + Cc1nc(Nc2ncc(C(=O)Nc3c(C)cccc3Cl)s2)cc(N2CCN(CCO)CC2)n1 [Dasatinib] (partner 0.075 µM)
Outline: as §1

Cell Line | relative viability ([1]; first compound 0.1 µM) | relative viability ([1]; first compound 0.3162 µM) | relative viability ([1]; first compound 1 µM) | relative viability ([1]; first compound 3.162 µM) | relative viability ([1]; first compound 10 µM) | relative viability ([2]; first compound 0.1 µM) | relative viability ([2]; first compound 0.3162 µM) | relative viability ([2]; first compound 1 µM) | relative viability ([2]; first compound 3.162 µM) | relative viability ([2]; first compound 10 µM) | relative viability ([3]; first compound 0.1 µM) | relative viability ([3]; first compound 0.3162 µM) | relative viability ([3]; first compound 1 µM) | relative viability ([3]; first compound 3.162 µM) | relative viability ([3]; first compound 10 µM) | relative viability ([4]; first compound 0.02 µM) | relative viability ([4]; first compound 0.06325 µM) | relative viability ([4]; first compound 0.2 µM) | relative viability ([4]; first compound 0.6325 µM) | relative viability ([4]; first compound 2 µM)
SK-LU-1 | 1.37 | 1.18 | 1.39 | 1.15 | 1.24 | 1.06 | 1.22 | 1.26 | 1.18 | 0.917 | 0.531 | 0.689 | 0.555 | 0.715 | 0.502 | 0.153 | 0.224 | 0.182 | 0.185 | 0.191
H3255 | 0.906 | 0.751 | 1.23 | 0.652 | 0.754 | 0.913 | 0.926 | 0.943 | 1.09 | 0.891 | 0.395 | 0.348 | 0.26 | 0.316 | 0.322 | 0.366 | 0.347 | 0.299 | 0.319 | 0.438
NCI-H1666 | 0.704 | 0.84 | 0.702 | 0.719 | 0.534 | 0.854 | 0.916 | 0.8 | 0.714 | 0.568 | 0.58 | 0.574 | 0.518 | 0.519 | 0.53 | 0.907 | 0.769 | 0.73 | 0.872 | 0.827
201T | 1.09 | 1.09 | 1.17 | 1.12 | 1.07 | 1.07 | 1.02 | 1.07 | 1.17 | 1.03 | 0.48 | 0.437 | 0.464 | 0.443 | 0.442 | 0.646 | 0.62 | 0.573 | 0.533 | 0.614
